Laboratory results reported in publication PMC11538131, “Degradation mechanism of difructose dianhydride III in Blautia species” (Applied Microbiology and Biotechnology, 2024).

Target: T1, GH32 β-D-fructofuranosidase BBDE_1523 (Bifidobacterium dentium, UniProt D2Q5I2)
T1 construct: gene fosC; cloned and expressed as BpDFA-IIIase (pET23a, C-terminal His-tag, E. coli BL21(DE3), TALON)
T1 sequence (D2Q5I2 1-518): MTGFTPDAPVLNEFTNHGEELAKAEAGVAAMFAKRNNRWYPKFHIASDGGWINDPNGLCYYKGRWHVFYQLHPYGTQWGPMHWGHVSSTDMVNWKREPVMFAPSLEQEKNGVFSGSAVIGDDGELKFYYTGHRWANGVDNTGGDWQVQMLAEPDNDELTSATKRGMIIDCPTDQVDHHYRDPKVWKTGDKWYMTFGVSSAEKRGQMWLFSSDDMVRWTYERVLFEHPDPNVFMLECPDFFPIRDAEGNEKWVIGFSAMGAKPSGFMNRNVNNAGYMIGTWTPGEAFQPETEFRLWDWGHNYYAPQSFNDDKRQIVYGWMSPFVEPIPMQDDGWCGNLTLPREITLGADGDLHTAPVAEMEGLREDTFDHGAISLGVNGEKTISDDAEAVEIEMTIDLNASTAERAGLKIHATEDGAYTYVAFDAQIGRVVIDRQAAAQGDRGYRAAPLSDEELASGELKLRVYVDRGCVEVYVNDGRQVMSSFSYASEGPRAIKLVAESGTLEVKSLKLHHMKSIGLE
Assay: TLC and HPAEC-PAD
Type: biochemical
Conditions: 50 mM acetate pH 6.0, 37 °C, overnight; together with BpDFA-IIIase

SMILES: OC[C@H]1O[C@@](CO)(OCC2(O)OC[C@@H](O)[C@@H](O)[C@@H]2O)[C@@H](O)[C@@H]1O (stereo partly shown) [inulobiose]
- TLC and HPAEC-PAD: DFA-III was completely hydrolyzed into D-fructose via inulobiose
